Molecules are shown by their SMILES.

The text below walks through data of patent US20030134859A1 (SANKYO COMPANY, LIMITED, priority 2000, published 2003).

This assay has as its system Mouse preadipocyte strain 3T3-L1. Put plainly: Inhibition of differentiation as an indication of acetic acid uptake. As to conditions: Mus musculus, 3T3-L1, 0.1 μM test substance, control (0.01% dimethylsulfoxide) = 100%, read-out: Rate of Uptake (%) of [2-14C] acetic acid. It counts as cell-based. In outline:
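Differentiation is indexed by 1 hr [2-14C]acetic acid incorporation, measured by scintillation counting and given as uptake relative to 0.01% DMSO control (100%). Mouse 3T3-L1 preadipocytes, pre-grown 10 days, received 0.1 μM test substance throughout a 4-day insulin/IBMX/dexamethasone induction, followed by 2 days' maintenance culture.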
Turning to `O=C(Nc1ccc(S(=O)(=O)Nc2ccnn2-c2ccccc2)cc1)c1cc([N+](=O)[O-])ccc1Cl` [Example 108, N-[4-[(2-Phenyl-(2H)-pyrazol-3-yl)aminosulfonyl]phenyl]-(2-chloro-5-nitrophenyl)carboxamide], the activity at 0.1 µM amounted to 87.7%.

Regarding `Cc1ccccc1-c1csc(NC(=O)c2cc([N+](=O)[O-])ccc2Cl)n1` [Example 39, N-[4-(2-Methylphenyl)thiazol-2-yl]-(2-chloro-5-nitrophenyl)carboxamide], the activity at 0.1 µM was 62.5%. On to `O=C(Nc1ccc2c3c(cccc13)CC2)c1cc([N+](=O)[O-])ccc1Cl` [Example 54, N-(Acenaphthen-5-yl)-(2-chloro-5-nitrophenyl)carboxamide], for which the activity at 0.1 µM was found to be 51.3%.

Consider `COc1ccc(NC(=O)c2cc([N+](=O)[O-])ccc2Cl)cc1-c1ccccc1` [Example 6, N-(4-Methoxy-3-phenyl)phenyl-(2-chloro-5-nitrophenyl)carboxamide], for which the activity at 0.1 µM turned out to be 55.8%.
